Results as given in patent US20170315129A1, “CANCER CELL DETECTION METHOD USING LIVING BODY-DERIVED CELLS OF BIOLOGICAL ORIGIN” (Hirosaki University, priority 2014, published 2017).
“Also recorded” adds a separate entry of the source.

Assays:
[1] = test system: ascites cells obtained during an operation of a patient with endometrial cancer (endometrioid adenocarcinoma); assay: Live-cell fluorescence imaging of ascites cells, endometrial cancer patient, with later Papanicolaou staining (Example 2); format: cell-based, human
Description: Immediately after the start of laparotomy for endometrial cancer (endometrioid adenocarcinoma), the peritoneal cavity was washed with physiological saline in the same manner as in Example 1 to obtain a peritoneal washing, which was then added to a 50 mL centrifuge tube having 5 mL of the Hanks solution in advance. The resulting ascitic fluid suspension was centrifuged at […] for 2 minutes at room temperature, and the supernatant was removed by decantation. Subsequently, 30 mL of a commercially available solution of ammonium chloride for hemolysis was added, and allowed to stand for 2 minutes, and then centrifuged at 1500 G for 2 minutes at room temperature, and the supernatant was then removed by decantation. Some of the resulting pellet was set aside for cytodiagnosis tests at the hospital's pathology department, and the rest was further divided into 2 portions, each of which was dispersed into 40 mL of a KRB solution in 50 mL centrifuge tubes, and stored at room temperature an a dark place until application of fLG on the next day. […]
Observation and image acquisition were performed about 22 hours after obtaining ascites cells using the same instruments as in Example 1. […] Subsequently, a bright-field image and fluorescence images of the target cells were obtained using a high-power lens, and positional information on the stage was registered using a software dedicated for BZ-X700. […]

pancreatic cancer cells = settings: in vitro culture cells such as pancreatic cancer cells or cancer-bearing mice; cited from earlier work
[2] = test system: ascites cells obtained during an operation of a patient with endometrial cancer; assay: Live-cell fluorescence imaging of ascites cells, endometrial cancer patient, reactive mesothelial cells (Example 3); format: cell-based, human; settings: cell population in region of interest, apparent reactive mesothelial cells on Papanicolaou staining; 100 μM 2-NBDLG and 20 μM 2TRLG; FIG. 5A
Description: Immediately after the start of laparotomy for endometrial cancer, the peritoneal cavity was washed with physiological saline in the same manner as in Example 1 to obtain a peritoneal washing, which was then added to a 50 mL centrifuge tube having 5 mL of the Hanks solution in advance. The resulting ascitic fluid suspension was centrifuged at 1500 G for 2 minutes at room temperature, and then the supernatant was removed with a dropper. Some of the resulting pellet was set aside for cytodiagnosis tests at the hospital's pathology department, and the rest was dispersed into 15 mL of a KRB solution in a 15 mL centrifuge tube, then again centrifuged at 1500 G for 2 minutes at room temperature, and the supernatant was removed with a dropper. The pellet primarily includes red blood cells, and a large amount of red blood cells may obscure the target cells, interfering with microscopy. […]
An ×2 fLG solution prepared as in Example 1 (2-1) in an amount of 1 mL was added and mixed, and the cells was exposed to fLG for 5 minutes in a 37° C. water bath. […] Bright field image: high sensitivity, transmitted illumination intensity 25, aperture stop 20%, exposure time 1/500 s • Green fluorescence image: high sensitivity, excitation light intensity 100%, exposure time 1/4 s • Red fluorescence image: high sensitivity, excitation light intensity 10%, exposure time 1/10 s • (Experiment Results)

O=C[C@@H](Nc1ccc([N+](=O)[O-])c2nonc12)[C@H](O)[C@@H](O)[C@@H](O)CO [2-NBDLG, 2-[N-(7-nitrobenz-2-oxa-1,3-diazole-4-yl)amino]-2-deoxy-L-glucose]
intracellular localisation of 2-NBDLG uptake ([1]; Cluster 1, FIG. 4A): taken up into the cytoplasmic portion except for the nucleus | fluorescence from 2-NBDLG (green wavelength region) ([1]; two cancer-cell clusters (left cluster and Cluster 1), 100 μM 2-NBDLG and 20 μM 2TRLG, fLG applied about 20 hours after sampling, FIG. 3B, 4D): show fluorescence; also recorded: positive | uptake into cancer cells (pancreatic cancer cells): specific uptake | fluorescence from 2-NBDLG (green wavelength region) [2]: shows fluorescence
